Assay results published in ChEMBL document CHEMBL5154826, “Discovery of the Clinical Candidate MAK683: An EED-Directed, Allosteric, and Selective PRC2 Inhibitor for the Treatment of Advanced Malignancies” (J Med Chem, 2022).
In brackets after ≈: the same amount, converted by molar mass.

Key:
[1] = target: T1, Alpha-2C adrenergic receptor (Homo sapiens, UniProt P18825); assay: Inhibition of alpha2c adrenergic receptor (unknown origin)
T1 sequence (P18825 whole entry): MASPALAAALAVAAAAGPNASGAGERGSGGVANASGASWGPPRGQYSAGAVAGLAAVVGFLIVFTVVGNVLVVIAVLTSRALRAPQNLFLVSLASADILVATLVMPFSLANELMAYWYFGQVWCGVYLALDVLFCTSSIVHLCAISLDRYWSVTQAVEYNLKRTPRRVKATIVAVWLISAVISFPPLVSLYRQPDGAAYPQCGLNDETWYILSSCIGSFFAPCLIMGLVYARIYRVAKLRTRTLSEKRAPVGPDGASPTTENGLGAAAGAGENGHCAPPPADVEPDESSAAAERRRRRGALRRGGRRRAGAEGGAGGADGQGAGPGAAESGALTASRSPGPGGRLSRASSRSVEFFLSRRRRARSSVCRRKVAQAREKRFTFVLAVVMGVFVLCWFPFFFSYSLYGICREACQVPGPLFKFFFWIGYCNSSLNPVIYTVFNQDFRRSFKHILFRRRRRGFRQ

[2] = Free plasma concentration in Athymic BALB/c nude mouse xenografted with human Karpas-422 cells at 20 mg/kg, po after 12 hrs by HPLC-MS/MS analysis; type: ADME, organism-based; conditions: in vivo
[3] = Intrinsic clearance in human hepatocytes measured per 10^6 cells; type: ADME, cell-based, Hepatocyte; conditions: read-out: CLH
KARPAS-422 = assay: Antiproliferative activity against human KARPAS-422 cells expressing EZH2 mutant assessed as inhibition of cell growth after 14 days by beckman coulter counting method; type: functional; conditions: time 14 day
[4] = Lipophilicity, logD of the compound at pH 7.4 by LC with tandem MS analysis; type: physicochemical; conditions: buffer, read-out: logD
[5] = Dissociation constant, pKa of compound; type: physicochemical
[6] = Permeability across apical to basolateral side in human Caco-2 cells at 10 uM incubated for 2 hrs by LC/MS/MS analysis; type: ADME, cell-based; conditions: Caco-2, read-out: permeability
[7] = Oral bioavailability in Sprague-Dawley rat at 2 mg/kg; type: ADME, organism-based; conditions: in vivo
Cytochrome P450 3A4 = Cytochrome P450 3A4 (Homo sapiens, UniProt P08684); assay: Inhibition of CYP3A4 in human liver microsomes using midazolam as substrate incubated for 10 mins in presence of NADPH by LC-MS/MS analysis; type: ADME, Microsome
Cytochrome P450 2C9 = Cytochrome P450 2C9 (Homo sapiens, UniProt P11712); assay: Inhibition of CYP2C9 in human liver microsomes using diclofenac as substrate incubated for 10 mins in presence of NADPH by LC-MS/MS analysis; type: ADME, Microsome
Cytochrome P450 2D6 = Cytochrome P450 2D6 (Homo sapiens, UniProt P10635); assay: Inhibition of CYP2D6 in human liver microsomes using bufuralol as substrate incubated for 10 mins in presence of NADPH by LC-MS/MS analysis; type: ADME, Microsome
[8] = High throughput solubility of the compound at pH 1 after 16 to 24 hrs by MS/MS analysis; type: physicochemical; conditions: buffer, time 16-24 hrs
[9] = High throughput solubility of the compound at pH 7 after 16 to 24 hrs by MS/MS analysis; type: physicochemical; conditions: buffer, time 16-24 hrs, read-out: solubility
[10] = High throughput solubility of the compound in SGF after 16 to 24 hrs by MS/MS analysis; type: physicochemical; conditions: time 16-24 hrs
[11] = High throughput solubility of the compound in FaSSIF after 16 to 24 hrs by MS/MS analysis; type: physicochemical; conditions: time 16-24 hrs
[12] = High throughput solubility of the compound in FeSSIF after 16 to 24 hrs by MS/MS analysis; type: physicochemical; conditions: time 16-24 hrs
[13] = Permeability across basolateral to apical side in human Caco-2 cells incubated for 2 hrs by LC/MS/MS analysis; type: ADME, cell-based; conditions: read-out: permeability
[14] = Antitumor activity against human Karpas-422 cells xenografted Athymic BALB/c nude mouse assessed as minimum effective dose administered twice a day for 30 days; type: functional; conditions: KARPAS-422, 720 h, time 30 day, read-out: MED
[15] = Oral biovailability in ICR (CD-1) mouse at 2 mg/kg, po; type: ADME, organism-based; conditions: in vivo
[16] = Oral biovailability in Beagle dog at 2 mg/kg, po; type: ADME, organism-based, Canis lupus familiaris; conditions: in vivo
[17] = Volume of distribution at steady state ICR (CD-1) mouse at 2 mg/kg, po or 1 mg/kg, iv after 1 week by LC-MS/MS analysis; type: ADME, organism-based; conditions: in vivo, 168 h, time 1 weeks
[18] = Volume of distribution at steady state in Sprague-Dawley rat at 2 mg/kg, po or 1 mg/kg, iv after 1 week by LC-MS/MS analysis; type: ADME, organism-based; conditions: in vivo, 168 h, time 1 weeks
[19] = Volume of distribution at steady state in wild type Beagle dog at 2 mg/kg, po or 1 mg/kg, iv after 1 week by LC-MS/MS analysis; type: ADME, organism-based, Canis lupus familiaris; conditions: in vivo, 168 h, time 1 weeks
[20] = Terminal half life in ICR (CD-1) mouse at 2 mg/kg, po or 1 mg/kg, iv after 1 week by LC-MS/MS analysis; type: ADME, organism-based; conditions: in vivo, time 1 weeks, read-out: beta t1/2 (converted)
[21] = Terminal half life in Sprague-Dawley rat at 2 mg/kg, po or 1 mg/kg, iv after 1 week by LC-MS/MS analysis; type: ADME, organism-based; conditions: in vivo, time 1 weeks, read-out: beta t1/2 (converted)
[22] = Terminal half life in wild type Beagle dog at 2 mg/kg, po or 1 mg/kg, iv after 1 week by LC-MS/MS analysis; type: ADME, organism-based, Canis lupus familiaris; conditions: in vivo, time 1 weeks, read-out: beta t1/2 (converted)
[23] = Dose normalized AUC in ICR (CD-1) mouse at 2 mg/kg, po or 1 mg/kg, iv after 1 week by LC-MS/MS analysis; type: ADME, organism-based; conditions: in vivo, 168 h, time 1 weeks
[24] = Dose normalized AUC in Sprague-Dawley rat at 2 mg/kg, po or 1 mg/kg, iv after 1 week by LC-MS/MS analysis; type: ADME, organism-based; conditions: in vivo, 168 h, time 1 weeks
[25] = Dose normalized AUC in wild type Beagle dog at 2 mg/kg, po or 1 mg/kg, iv after 1 week by LC-MS/MS analysis; type: ADME, organism-based, Canis lupus familiaris; conditions: in vivo, 168 h, time 1 weeks
[26] = Dose normalized Cmax in ICR (CD-1) mouse at 2 mg/kg, po or 1 mg/kg, iv after 1 week by LC-MS/MS analysis; type: ADME, organism-based; conditions: in vivo, 168 h, time 1 weeks
[27] = Dose normalized Cmax in Sprague-Dawley rat at 2 mg/kg, po or 1 mg/kg, iv after 1 week by LC-MS/MS analysis; type: ADME, organism-based; conditions: in vivo, 168 h, time 1 weeks
[28] = Dose normalized Cmax in wild type Beagle dog at 2 mg/kg, po or 1 mg/kg, iv after 1 week by LC-MS/MS analysis; type: ADME, organism-based, Canis lupus familiaris; conditions: in vivo, 168 h, time 1 weeks
[29] = Metabolic stability in mouse microsomes assessed as intrinsic clearance; type: ADME, Microsome; conditions: read-out: CLH
[30] = Metabolic stability in rat microsomes assessed as intrinsic clearance; type: ADME, Microsome; conditions: read-out: CLH
[31] = Metabolic stability in dog microsomes assessed as intrinsic clearance; type: ADME, Canis lupus familiaris, Microsome; conditions: read-out: CLH
[32] = Metabolic stability in human microsomes assessed as intrinsic clearance; type: ADME, Microsome; conditions: read-out: CLH
[33] = Intrinsic clearance in mouse hepatocytes measured per 10^6 cells; type: ADME, cell-based, Hepatocyte; conditions: read-out: CLH
[34] = Intrinsic clearance in rat hepatocytes measured per 10^6 cells; type: ADME, cell-based, Hepatocyte; conditions: read-out: CLH
[35] = Intrinsic clearance in dog hepatocytes measured per 10^6 cells; type: ADME, cell-based, Canis lupus familiaris, Hepatocyte; conditions: read-out: CLH
[36] = Plasma clearance in rat; type: ADME, cell-free
[37] = Plasma clearance in dog; type: ADME, cell-free, Canis lupus familiaris
[38] = Plasma protein binding in mouse at 1 uM measured after 6 hrs LC-MS/MS analysis; type: ADME, cell-free; conditions: read-out: PPB (converted)
[39] = Plasma protein binding in rat at 1 uM measured after 6 hrs LC-MS/MS analysis; type: ADME, cell-free; conditions: read-out: PPB (converted)
[40] = Plasma protein binding in dog at 1 uM measured after 6 hrs LC-MS/MS analysis; type: ADME, cell-free, Canis lupus familiaris; conditions: read-out: PPB (converted)
[41] = Plasma protein binding in human at 1 uM measured after 6 hrs LC-MS/MS analysis; type: ADME, cell-free; conditions: read-out: PPB (converted)
[42] = Plasma protein binding in human assessed as unbound fraction at 1 uM measured after 6 hrs LC-MS/MS analysis; type: ADME, cell-free

Cytochrome P450 3A4, sequence (P08684 whole entry): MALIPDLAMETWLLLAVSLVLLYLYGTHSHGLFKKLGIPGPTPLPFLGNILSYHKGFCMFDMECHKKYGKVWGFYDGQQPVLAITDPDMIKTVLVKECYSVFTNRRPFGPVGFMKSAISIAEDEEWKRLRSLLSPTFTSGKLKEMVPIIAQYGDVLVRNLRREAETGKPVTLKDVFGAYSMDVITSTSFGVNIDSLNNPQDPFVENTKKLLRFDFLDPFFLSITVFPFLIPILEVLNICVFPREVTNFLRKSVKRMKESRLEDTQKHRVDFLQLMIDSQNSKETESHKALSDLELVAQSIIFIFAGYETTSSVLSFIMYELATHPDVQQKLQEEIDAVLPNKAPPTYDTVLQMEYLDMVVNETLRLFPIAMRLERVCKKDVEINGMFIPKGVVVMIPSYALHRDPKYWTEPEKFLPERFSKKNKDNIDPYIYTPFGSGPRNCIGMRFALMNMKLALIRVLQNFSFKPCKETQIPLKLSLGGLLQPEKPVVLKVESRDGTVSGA
Cytochrome P450 2C9, sequence (P11712 whole entry): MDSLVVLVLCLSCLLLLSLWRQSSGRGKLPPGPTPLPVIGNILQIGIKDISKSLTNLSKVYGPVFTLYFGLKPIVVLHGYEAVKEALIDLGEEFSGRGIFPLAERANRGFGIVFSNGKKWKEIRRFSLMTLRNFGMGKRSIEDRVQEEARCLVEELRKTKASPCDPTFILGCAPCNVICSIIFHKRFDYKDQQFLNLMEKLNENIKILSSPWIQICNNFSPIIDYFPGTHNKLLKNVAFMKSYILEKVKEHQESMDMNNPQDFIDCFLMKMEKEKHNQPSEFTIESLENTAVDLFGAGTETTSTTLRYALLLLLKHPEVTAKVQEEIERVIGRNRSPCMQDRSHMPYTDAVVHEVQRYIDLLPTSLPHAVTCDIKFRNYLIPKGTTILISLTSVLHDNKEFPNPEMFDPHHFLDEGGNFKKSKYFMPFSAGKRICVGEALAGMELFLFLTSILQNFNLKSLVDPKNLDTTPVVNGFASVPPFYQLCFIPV
Cytochrome P450 2D6, sequence (P10635 whole entry): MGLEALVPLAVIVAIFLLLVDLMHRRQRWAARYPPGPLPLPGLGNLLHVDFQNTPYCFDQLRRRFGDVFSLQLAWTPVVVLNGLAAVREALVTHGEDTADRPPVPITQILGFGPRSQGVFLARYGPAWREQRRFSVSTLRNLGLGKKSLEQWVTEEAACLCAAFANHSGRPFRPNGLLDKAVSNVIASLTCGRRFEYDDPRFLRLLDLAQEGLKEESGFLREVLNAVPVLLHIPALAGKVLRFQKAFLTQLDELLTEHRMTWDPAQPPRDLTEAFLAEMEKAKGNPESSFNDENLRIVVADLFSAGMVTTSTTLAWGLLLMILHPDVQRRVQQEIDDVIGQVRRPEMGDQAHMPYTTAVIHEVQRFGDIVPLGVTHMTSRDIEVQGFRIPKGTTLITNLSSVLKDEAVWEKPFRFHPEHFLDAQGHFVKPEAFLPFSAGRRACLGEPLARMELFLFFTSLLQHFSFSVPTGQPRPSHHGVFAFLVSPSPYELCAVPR

- IC50 [1]: 8.7 µM
- Cp(f) [2]: 32 nM
- hepatocyte CLint [3]: < 2.3 µL/min/1e6 cells
- GI50 (KARPAS-422; Homo sapiens, KARPAS-422, 336 h): 6.7 µM
- GI90 (KARPAS-422): 32 µM
- logD [4]: 3.8
- pKa [5]: 3.3
- Papp A→B at 2 h, 10 µM [6]: 7.2 ×10⁻⁶ cm/s
- bioavailability [7]: 109%
- IC50 (Cytochrome P450 3A4): > 20 µM
- IC50 (Cytochrome P450 2C9): > 20 µM
- IC50 (Cytochrome P450 2D6): > 20 µM
- solubility [8]: > 13000 µM
- solubility [9]: 2.6 µM (≈ 0.984 µg/mL)
- solubility [10]: 173 µM (≈ 65.5 µg/mL)
- solubility [11]: 34 µM (≈ 12.9 µg/mL)
- solubility [12]: 86 µM (≈ 32.5 µg/mL)
- Papp B→A at 2 h [13]: 42 ×10⁻⁶ cm/s
- bioavailability [15]: 132%
- bioavailability [16]: 68%
- Vdss [17]: 7.5 L/kg
- Vdss [18]: 2.4 L/kg
- Vdss [19]: 2.1 L/kg
- half-life [20]: 2.2 h
- half-life [21]: 1.1 h
- half-life [22]: 2 h
- AUC/dose [23]: 1032 nM·h
- AUC/dose [24]: 2127 nM·h
- AUC/dose [25]: 2392 nM·h
- Cmax/dose [26]: 288 nM
- Cmax/dose [27]: 387 nM
- Cmax/dose [28]: 590 nM
- microsomal CLint [29]: 21 µL/min/mg
- microsomal CLint [30]: 11 µL/min/mg
- microsomal CLint [31]: 10 µL/min/mg
- microsomal CLint [32]: 9 µL/min/mg
- hepatocyte CLint [33]: 3.6 µL/min/1e6 cells
- hepatocyte CLint [34]: 3.2 µL/min/1e6 cells
- hepatocyte CLint [35]: < 2.3 µL/min/1e6 cells
- clearance [36]: 22 mL/min/kg
- clearance [37]: 13 mL/min/kg
- fraction unbound at 6 h, 1 µM [38]: 0.12
- fraction unbound at 6 h, 1 µM [39]: 0.1
- fraction unbound at 6 h, 1 µM [40]: 0.15
- fraction unbound at 6 h, 1 µM [41]: 0.13
- fraction unbound at 6 h, 1 µM [42]: 0.13
SMILES: COc1cccc(F)c1CNc1ccc(-c2cnc(C)nc2C)c2nncn12
- minimal effective dose [14]: 7 mg/kg
